{"source": "patent US20070140978A1", "about": "“Adrenergic complement inhaler” (priority 2004, published 2007)", "system": "child with severe nasal congestion due to a cold", "assay": "Severe nasal congestion due to a cold, child", "type": "in vivo, human", "conditions": "every four hours", "from_the_text": "A child presents with severe nasal congestion due to a cold. […] The child then supplements the oral medication by using the composition of this Example, one spray into each nostril, following each dose of the oral medication."}
{"smiles": "CN[C@@H](C)[C@@H](O)c1ccccc1", "note": "[pseudophedrine]", "values": [{"measurement": "relief of nasal congestion, oral medication alone", "value": "limited relief"}]}
